Reference: publication PMC12698594, “A natural PCID2-Targeting compound suppresses hepatocellular carcinoma progression: evidence from structure-based discovery and biological evaluation” (Frontiers in Pharmacology, 2025)

Biological target: T1, PCID2 (PCI-domain containing protein 2) (Homo sapiens, UniProt Q5JVF3)
T1 construct: amine-type direct coupling to CM5 chip; DSS1 not mentioned in the SPR test
Assay: SPR (Biacore, CM5 chip, […] Langmuir global fit)
Assay type: binding

T1 sequence (Q5JVF3 2-399): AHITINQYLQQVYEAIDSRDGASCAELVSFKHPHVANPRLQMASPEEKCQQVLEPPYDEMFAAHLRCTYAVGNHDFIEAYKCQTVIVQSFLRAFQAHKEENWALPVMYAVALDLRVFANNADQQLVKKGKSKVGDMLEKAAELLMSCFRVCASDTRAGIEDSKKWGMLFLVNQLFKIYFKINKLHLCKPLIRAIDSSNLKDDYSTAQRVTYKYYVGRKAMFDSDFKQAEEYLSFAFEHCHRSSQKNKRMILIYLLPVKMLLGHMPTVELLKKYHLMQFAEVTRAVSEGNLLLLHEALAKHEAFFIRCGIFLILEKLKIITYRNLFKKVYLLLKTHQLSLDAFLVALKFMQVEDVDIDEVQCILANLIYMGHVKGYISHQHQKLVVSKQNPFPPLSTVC

- Kd: 5.27 µM
Compound: O=C(OC[C@H]1O[C@@H](OC(=O)c2cc(O)c(O)c(O)c2)[C@H](OC(=O)c2cc(O)c(O)c(O)c2)[C@@H](OC(=O)c2cc(O)c(O)c(O)c2)[C@@H]1OC(=O)c1cc(O)c(O)c(O)c1)c1cc(O)c(O)c(O)c1 [#02, 1,2,3,4,6-Penta-O-galloyl-β-D-glucose]
